Data as given in PubChem BioAssay AID1195 (EPA DSSTox, 2008).

Test system: human maximum recommended daily dose, FDA database
Assay: DSSTox (FDAMDD) FDA Maximum (Recommended) Daily Dose Database
Conditions: active compounds read low
Outline: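 MRDD values come from clinical trials with daily oral dosing, usually for 3–12 months, for the average adult, in mg/day converted to mg/kg-bw/day assuming 60 kg. Antineoplastic mg/m2 doses are divided by 37. Activity score maps log10(1/MRDD mmol) onto 1–100.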

[1] = TherapeuticCategory: antibacterial
[2] = TherapeuticCategory: antidepressant
[3] = TherapeuticCategory: sedative, hypnotic
[4] = TherapeuticCategory: anticonvulsant
[5] = TherapeuticCategory: antihypertensive
[6] = TherapeuticCategory: antipsychotic
[7] = TherapeuticCategory: fluid and nutrient replenisher, ferric form as hematinic

CCN1CCN(C(=O)N[C@@H](C(=O)N[C@@H]2C(=O)N3C(C(=O)O)=C(CSc4nnnn4C)CS[C@H]23)c2ccc(O)cc2)C(=O)C1=O
maximum recommended daily dose (mmol/kg-bw/day) [1]: 0.31

CCn1cc(C(=O)O)c(=O)c2cc3c(cc21)OCO3
maximum recommended daily dose (mmol/kg-bw/day) [1]: 0.0957

CC(=O)N[C@@H](CS)C(=O)O
maximum recommended daily dose (mmol/kg-bw/day) (TherapeuticCategory: mucolytic, corneal vulnerary): 0.0613

CNCCC(Oc1ccc(C(F)(F)F)cc1)c1ccccc1 (configuration not stated)
maximum recommended daily dose (mmol/kg-bw/day) [2]: 0.0043

CCC1(c2ccccc2)CCC(=O)NC1=O (configuration not stated)
maximum recommended daily dose (mmol/kg-bw/day) [3]: 0.0383

CN1C(=O)CC(C)(c2ccccc2)C1=O (configuration not stated)
maximum recommended daily dose (mmol/kg-bw/day) [4]: 0.0984

COc1cc2nc(N3CCN(C(=O)C4CCCO4)CC3)nc(N)c2cc1OC (configuration not stated)
maximum recommended daily dose (mmol/kg-bw/day) [5]: 0.00086

COc1cc([C@@H]2Oc3cc([C@H]4Oc5cc(O)cc(O)c5C(=O)[C@@H]4O)ccc3O[C@H]2CO)ccc1O
maximum recommended daily dose (mmol/kg-bw/day) (TherapeuticCategory: treatment of liver disfunction): 0.0145

COc1ccccc1OCC(O)COC(N)=O (configuration not stated)
maximum recommended daily dose (mmol/kg-bw/day) (TherapeuticCategory: skeletal muscle relaxant): 0.415

CCOC(=O)C1(c2ccccc2)CCN(CCC(C#N)(c2ccccc2)c2ccccc2)CC1
maximum recommended daily dose (mmol/kg-bw/day) (TherapeuticCategory: antiperistaltic, antidiarrheal): 0.000736

Cc1ncsc1CCCl
maximum recommended daily dose (mmol/kg-bw/day) (TherapeuticCategory: sedative, hypnotic, anticonvulsant): 0.0396

O=C(O)CN(CCN(CC(=O)O)CC(=O)O)CCN(CC(=O)O)CC(=O)O
maximum recommended daily dose (mmol/kg-bw/day) (TherapeuticCategory: chelating agent): 0.0425

O=S(O)CNc1ccc(S(=O)(=O)c2ccc(NCS(=O)O)cc2)cc1
maximum recommended daily dose (mmol/kg-bw/day) [1]: 0.0111

CN(C)CCCN1c2ccccc2Sc2ccccc21
maximum recommended daily dose (mmol/kg-bw/day) [6]: 0.0587

O=c1[nH]cnc2c1ncn2[C@H]1CC[C@@H](CO)O1
maximum recommended daily dose (mmol/kg-bw/day) (TherapeuticCategory: antiviral): 0.0282

CC(C)(N)Cc1ccccc1
maximum recommended daily dose (mmol/kg-bw/day) (TherapeuticCategory: anorexic): 0.00419

CC12C=CC(C(=O)O[C@H]3CC[C@H]4[C@@H]5CCC6=CC(=O)CC[C@@H]6[C@H]5CC[C@]34C)(CC1)CC2
maximum recommended daily dose (mmol/kg-bw/day) (TherapeuticCategory: anabolic): 0.00788

CNCCC=C1c2ccccc2CCc2ccccc21
maximum recommended daily dose (mmol/kg-bw/day) [2]: 0.00634

COc1ccc2c(c1)c(CC(=O)OCC(=O)O)c(C)n2C(=O)c1ccc(Cl)cc1
maximum recommended daily dose (mmol/kg-bw/day) (TherapeuticCategory: anti inflammatory): 0.00721

C/C=C(/CC[C@@H](C)[C@H]1CC[C@H]2C3=CC[C@H]4[C@H](C)[C@@H](O)CC[C@]4(C)[C@H]3CC[C@]12C)C(C)C
maximum recommended daily dose (mmol/kg-bw/day) (TherapeuticCategory: anticholinesteremic): 0.234

CC(=O)c1ccc2c(c1)N(CCCN1CCC(CCO)CC1)c1ccccc1S2
maximum recommended daily dose (mmol/kg-bw/day) [6]: 0.0065

CC(O)C(=O)O (configuration not stated)
maximum recommended daily dose (mmol/kg-bw/day) (TherapeuticCategory: acidulant): 1.11

CCOC(=O)C1=C(C)NC(C)=C(C(=O)OC)C1c1cccc([N+](=O)[O-])c1 (configuration not stated)
maximum recommended daily dose (mmol/kg-bw/day) [5]: 0.000924

O=C(O)P(=O)(O)O
maximum recommended daily dose (mmol/kg-bw/day) (TherapeuticCategory: antiviral): 0.625

O=C(O)C(O)c1ccccc1 (configuration not stated)
maximum recommended daily dose (mmol/kg-bw/day) (TherapeuticCategory: urinary antiseptic): 0.438

CCCCC(C)(O)C/C=C/[C@H]1[C@H](O)CC(=O)[C@@H]1CCCCCCC(=O)OC (some centres not stated)
maximum recommended daily dose (mmol/kg-bw/day) (TherapeuticCategory: antiulcerative): 3.48e-05

CCC1(c2ccccc2)C(=O)NCNC1=O
maximum recommended daily dose (mmol/kg-bw/day) [4]: 0.0382

OC[C@H]1O[C@](O)(CO)[C@@H](O)[C@@H]1O
maximum recommended daily dose (mmol/kg-bw/day) [7]: 2.31

CC/C=C(\C)C1(CC)C(=O)NC(=O)NC1=O
maximum recommended daily dose (mmol/kg-bw/day) [3]: 0.0148

CCc1nn(CCCN2CCN(c3cccc(Cl)c3)CC2)c(=O)n1CC
maximum recommended daily dose (mmol/kg-bw/day) [2]: 0.00662

C=C1CC[C@@]2(O)[C@H]3Cc4ccc(O)c5c4[C@@]2(CCN3CC2CC2)[C@H]1O5
maximum recommended daily dose (mmol/kg-bw/day) (TherapeuticCategory: narcotic antagonist): 0.00245

CC1(C)[C@H](C(=O)O)N2C(=O)C[C@H]2S1(=O)=O
maximum recommended daily dose (mmol/kg-bw/day) (TherapeuticCategory: combination to form antibacterial): 0.286

O=C(O)c1ccccc1Nc1cccc(C(F)(F)F)c1
maximum recommended daily dose (mmol/kg-bw/day) (TherapeuticCategory: analgesic, anti inflammatory): 0.0356

Oc1ccc2c(c1)[C@@]13CCCC[C@@]1(O)[C@@H](C2)N(CC1CCC1)CC3
maximum recommended daily dose (mmol/kg-bw/day) (TherapeuticCategory: narcotic analgesic): 0.000815

C#C[C@]1(O)CC[C@H]2[C@@H]3CCC4=Cc5oncc5C[C@]4(C)[C@H]3CC[C@@]21C
maximum recommended daily dose (mmol/kg-bw/day) (TherapeuticCategory: antigonadotropin): 0.0394

OC[C@@H](O)CN1CCN(c2ccccc2)CC1
maximum recommended daily dose (mmol/kg-bw/day) (TherapeuticCategory: antitussive): 0.0127

OC[C@@]1(O)OC[C@@H](O)[C@@H](O)[C@@H]1O
maximum recommended daily dose (mmol/kg-bw/day) [7]: 2.31
